From US8952024B2, “Herbicidal pyrimidone derivatives” (E I du Pont de Nemours and Company, priority 2009, dated 2015)

What was measured:
Format in all cases: in vivo
[1] = tested on: barnyardgrass (Echinochloa crus-galli); test: Test A pre-/postemergence plant response
In short: (§1)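 Formulated test chemicals (non-phytotoxic solvent, surfactant) were sprayed onto soil right after planting and simultaneously onto young plants at one to two leaves, 2 to 10 cm tall. Plants stayed in the greenhouse about ten days; injury was then visually scored against untreated controls, from 0 (no effect) to 100 (complete control).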

[2] = tested on: corn (Zea mays); test: Test A pre-/postemergence plant response
In short: as §1

[3] = tested on: giant foxtail (Setaria faberii); test: Test A pre-/postemergence plant response
In short: as §1

[4] = tested on: large crabgrass (Digitaria sanguinalis); test: Test A pre-/postemergence plant response
In short: as §1

[5] = tested on: morningglory (Ipomoea spp.); test: Test A pre-/postemergence plant response
In short: as §1

[6] = tested on: pigweed (Amaranthus retroflexus); test: Test A pre-/postemergence plant response
In short: as §1

[7] = tested on: velvetleaf (Abutilon theophrasti); test: Test A pre-/postemergence plant response
In short: as §1

[8] = tested on: wheat (Triticum aestivum); test: Test A pre-/postemergence plant response
In short: as §1

[9] = tested on: barnyardgrass (Echinochloa crus-galli); test: Test B flooded paddy test; conditions: for Plant response rating, Barnyardgrass: Flood (flooded paddy test), 13 to 15 days
In short: (§2)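 Rice, umbrella sedge, ducksalad and barnyardgrass were grown to the 2-leaf stage, flooded to 3 cm, and compound was applied directly to the paddy water, with that depth kept throughout. After 13 to 15 days in the greenhouse, plants were visually rated against controls on a 0 (no effect) to 100 (complete control) scale.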

[10] = tested on: ducksalad (Heteranthera limosa); test: Test B flooded paddy test; conditions: for Plant response rating, Ducksalad: Flood (flooded paddy test), 13 to 15 days
In short: as §2

[11] = tested on: rice (Oryza sativa); test: Test B flooded paddy test; conditions: for Plant response rating, Rice: Flood (flooded paddy test), 13 to 15 days
In short: as §2

[12] = tested on: umbrella sedge (Cyperus difformis); test: Test B flooded paddy test; conditions: for Plant response rating, Sedge, Umbrella: Flood (flooded paddy test), 13 to 15 days
In short: as §2

[13] = Postemergence, 125 g ai/ha, visual injury, 0 to 100 scale (0 no effect, 100 complete control), approx. ten days
[14] = Postemergence, 500 g ai/ha, 0 to 100 scale, 0 = no effect, 100 = complete control, approx. ten days
[15] = Preemergence, 125 g ai/ha, 0 to 100 scale, 0 = no effect, 100 = complete control
[16] = Preemergence, 500 g ai/ha, visual injury, 0 to 100 scale (0 no effect, 100 complete control), approx. ten days
[17] = 250 g ai/ha, flooded paddy test, visual rating on 0 to 100 scale (0 no effect, 100 complete control) after 13 to 15 days
[18] = 31 g ai/ha, scale of 0 to 100 where 0 is no effect and 100 is complete control
[19] = 62 g ai/ha, scale 0 to 100, 0 is no effect, 100 is complete control
[20] = 125 g ai/ha, scale 0 to 100, 0 is no effect, 100 is complete control

COc1cccc(-n2c(-c3ccccc3)ncc(C(=O)C3=C(O)CCCC3=O)c2=O)c1 [Compound 19]
Barnyardgrass plant response rating [1, 13]: 0
Plant response rating, Barnyardgrass [1, 14]: 70
Plant response rating, Barnyardgrass [1, 15]: 10
Plant response rating, Barnyardgrass [1, 16]: 90
Corn plant response rating [2, 13]: 0
Plant response rating, Corn [2, 14]: 10
Plant response rating, Corn [2, 15]: 0
Plant response rating, Corn [2, 16]: 0
Foxtail, Giant plant response rating [3, 13]: 20
Plant response rating, Foxtail, Giant [3, 14]: 50
Plant response rating, Foxtail, Giant [3, 15]: 10
Plant response rating, Foxtail, Giant [3, 16]: 30
Crabgrass, Large plant response rating [4, 13]: 0
Plant response rating, Crabgrass, Large [4, 14]: 20
Plant response rating, Crabgrass, Large [4, 15]: 20
Plant response rating, Crabgrass, Large [4, 16]: 80
Morningglory plant response rating [5, 13]: 0
Plant response rating, Morningglory [5, 14]: 60
Plant response rating, Morningglory [5, 15]: 0
Plant response rating, Morningglory [5, 16]: 50
Pigweed plant response rating [6, 13]: 80
Plant response rating, Pigweed [6, 14]: 100
Plant response rating, Pigweed [6, 15]: 80
Plant response rating, Pigweed [6, 16]: 90
Velvetleaf plant response rating [7, 13]: 100
Plant response rating, Velvetleaf [7, 14]: 100
Plant response rating, Velvetleaf [7, 15]: 50
Plant response rating, Velvetleaf [7, 16]: 100
Wheat plant response rating [8, 13]: 0
Plant response rating, Wheat [8, 14]: 0
Plant response rating, Wheat [8, 15]: 0
Plant response rating, Wheat [8, 16]: 0
Plant response rating, Flood, Barnyardgrass [9, 17]: 15
Plant response rating, Barnyardgrass [9, 18]: 0
Plant response rating, Barnyardgrass [9, 19]: 0
Plant response rating, Barnyardgrass [9, 20]: 0
Plant response rating, Flood, Ducksalad [10, 17]: 90
Plant response rating, Ducksalad [10, 18]: 0
Plant response rating, Ducksalad [10, 19]: 75
Plant response rating, Ducksalad [10, 20]: 85
Plant response rating, Flood, Rice [11, 17]: 0
Plant response rating, Rice [11, 18]: 0
Plant response rating, Rice [11, 19]: 0
Plant response rating, Rice [11, 20]: 0
Plant response rating, Flood, Sedge, Umbrella [12, 17]: 95
Plant response rating, Sedge, Umbrella [12, 18]: 0
Plant response rating, Sedge, Umbrella [12, 19]: 70
Plant response rating, Sedge, Umbrella [12, 20]: 85
